Experimental data: patent US10836758B2, “Acyl sulfonamide NaV1.7 inhibitors” (BRISTOL-MYERS SQUIBB COMPANY, priority 2016, dated 2020)

Molecular target: NaV1.7 (Homo sapiens (Human), UniProt Q15858)
Assay: NaV1.7 IC50 of Table 1 (IonWorks Barracuda population patch clamp or ligand binding assay; table does not say which)
Format: cell-based
Conditions: HEK 293 cells expressing NaV1.7
Protocol: Ion Works Barracuda population patch clamp (PPC). PPC measurements were performed using an IonWorks Barracuda instrument (Molecular Devices Corporation, Union City, Calif.) using either PatchPlate™ PPC substrates (Molecular Devices Corporation) with 64 apertures per well. The ability to average currents from 64 recordings from each well greatly improves data consistency and recording success rates in the measurement of NaV1.7 mediated ionic currents. Calculated leak current was digitally subtracted from the total cell NaV1.7 current for each sample point acquired.
NaV1.7 currents were elicited by a voltage clamp protocol designed to bias the NaV1.7 channels to their inactivated state as follows. […] This was followed by a relatively brief hyperpolarization to −100 mv for 300 ms, then a 20 msec test pulse to −20 mV to elicit the NaV1.7 current used to measure the pharmacology of all test compounds. Compounds were incubated for 600 sec between the pre- and post-compound reads. […] The same solutions were used to record NaV1.5 currents, with the following voltage clamp protocol. NaV1.5 currents were elicited by a voltage clamp protocol designed to bias the NaV1.5 channels to their inactivated state as follows. […] This was followed by a relatively brief hyperpolarization to −100 mv for 30 ms, then a 20 msec test pulse to −10 mV to elicit the NaV1.5 current used to measure the pharmacology of all test compounds.
HEK 293 cells expressing NaV1.7 and NaV1.5 channels, were used (Essen Biosciences, Ann Arbor, Mich.). […] Cells were grown to 70% to 90% confluence in a flask and removed from the incubator (37° C., 5% CO2) 1 to 3 days after plating. Growth medium was aspirated from the culture flasks. […] Next a total of 2 mL TrypLE (Gibco) solution was added, and the flasks containing cells were sat for 3 min at RT, after which, the cells became visibly rounded and were easily dislodged from the bottom of the flask with a few brief taps on a solid surface. A total of 8 mL of media was added to the flask to inactivate the TrypLE, and the mixture was centrifuged at 910 rpm for 4 min. The cell supernatant was decanted, and the cell pellets were resuspended in 5-6 mL of external solution followed by gentle triturations using a 10 ml pipette, and transferred to a 15 ml conical tube and immediately brought to the IW Barracuda instrument.
Peak membrane currents were analyzed with IW Barracuda software and exported to Excel for further analysis. Concentration response curve fitting was performed with BMS in-house software. IC50 values were obtained by fits of the Hill equation to the average percent inhibition data plotted versus compound concentration. […] Results are reported in Table 1 (NaV1.7 Barra IC50 in nM and NaV1.5 Barra IC50 in nM).
hNaV1.7 binding affinities were determined with a filtration binding assay using purified membranes from HEK293 cells stably expressing hNaV1.7. HEK293 cells from a 10-stack cell culture flask (approximately 10^10 cells) were dissociated, frozen, and stored at −80° C. To prepare membranes, the frozen cell pellet was thawed and suspended in 6 ml hypotonic lysis buffer (50 mM HEPES, 0.1% mammalian protease inhibitor cocktail). 1 ml of resuspended cells was added to an additional 6 ml of lysis buffer and homogenized with 30 strokes of a tight pestle in a glass homogenizer. Homogenate was centrifuged at 1000×g for 10 minutes at 4° C. and the resulting supernatant was further centrifuged at 38,500×g for 60 minutes at 4° C. The resulting pellet was resuspended in binding buffer (50 mM HEPES, 130 mM NaCl, 5.4 mM KCl, 0.8 mM MgCl2, 5 mM glucose, pH 7.4) and needle homogenized with a 25 gauge needle. Protein concentration was determined with a BCA protein assay. Purified membranes were aliquoted, flash frozen in an ethyl alcohol dry ice bath, and stored at −80° C.

Chain of NaV1.7 (Q15858 whole entry): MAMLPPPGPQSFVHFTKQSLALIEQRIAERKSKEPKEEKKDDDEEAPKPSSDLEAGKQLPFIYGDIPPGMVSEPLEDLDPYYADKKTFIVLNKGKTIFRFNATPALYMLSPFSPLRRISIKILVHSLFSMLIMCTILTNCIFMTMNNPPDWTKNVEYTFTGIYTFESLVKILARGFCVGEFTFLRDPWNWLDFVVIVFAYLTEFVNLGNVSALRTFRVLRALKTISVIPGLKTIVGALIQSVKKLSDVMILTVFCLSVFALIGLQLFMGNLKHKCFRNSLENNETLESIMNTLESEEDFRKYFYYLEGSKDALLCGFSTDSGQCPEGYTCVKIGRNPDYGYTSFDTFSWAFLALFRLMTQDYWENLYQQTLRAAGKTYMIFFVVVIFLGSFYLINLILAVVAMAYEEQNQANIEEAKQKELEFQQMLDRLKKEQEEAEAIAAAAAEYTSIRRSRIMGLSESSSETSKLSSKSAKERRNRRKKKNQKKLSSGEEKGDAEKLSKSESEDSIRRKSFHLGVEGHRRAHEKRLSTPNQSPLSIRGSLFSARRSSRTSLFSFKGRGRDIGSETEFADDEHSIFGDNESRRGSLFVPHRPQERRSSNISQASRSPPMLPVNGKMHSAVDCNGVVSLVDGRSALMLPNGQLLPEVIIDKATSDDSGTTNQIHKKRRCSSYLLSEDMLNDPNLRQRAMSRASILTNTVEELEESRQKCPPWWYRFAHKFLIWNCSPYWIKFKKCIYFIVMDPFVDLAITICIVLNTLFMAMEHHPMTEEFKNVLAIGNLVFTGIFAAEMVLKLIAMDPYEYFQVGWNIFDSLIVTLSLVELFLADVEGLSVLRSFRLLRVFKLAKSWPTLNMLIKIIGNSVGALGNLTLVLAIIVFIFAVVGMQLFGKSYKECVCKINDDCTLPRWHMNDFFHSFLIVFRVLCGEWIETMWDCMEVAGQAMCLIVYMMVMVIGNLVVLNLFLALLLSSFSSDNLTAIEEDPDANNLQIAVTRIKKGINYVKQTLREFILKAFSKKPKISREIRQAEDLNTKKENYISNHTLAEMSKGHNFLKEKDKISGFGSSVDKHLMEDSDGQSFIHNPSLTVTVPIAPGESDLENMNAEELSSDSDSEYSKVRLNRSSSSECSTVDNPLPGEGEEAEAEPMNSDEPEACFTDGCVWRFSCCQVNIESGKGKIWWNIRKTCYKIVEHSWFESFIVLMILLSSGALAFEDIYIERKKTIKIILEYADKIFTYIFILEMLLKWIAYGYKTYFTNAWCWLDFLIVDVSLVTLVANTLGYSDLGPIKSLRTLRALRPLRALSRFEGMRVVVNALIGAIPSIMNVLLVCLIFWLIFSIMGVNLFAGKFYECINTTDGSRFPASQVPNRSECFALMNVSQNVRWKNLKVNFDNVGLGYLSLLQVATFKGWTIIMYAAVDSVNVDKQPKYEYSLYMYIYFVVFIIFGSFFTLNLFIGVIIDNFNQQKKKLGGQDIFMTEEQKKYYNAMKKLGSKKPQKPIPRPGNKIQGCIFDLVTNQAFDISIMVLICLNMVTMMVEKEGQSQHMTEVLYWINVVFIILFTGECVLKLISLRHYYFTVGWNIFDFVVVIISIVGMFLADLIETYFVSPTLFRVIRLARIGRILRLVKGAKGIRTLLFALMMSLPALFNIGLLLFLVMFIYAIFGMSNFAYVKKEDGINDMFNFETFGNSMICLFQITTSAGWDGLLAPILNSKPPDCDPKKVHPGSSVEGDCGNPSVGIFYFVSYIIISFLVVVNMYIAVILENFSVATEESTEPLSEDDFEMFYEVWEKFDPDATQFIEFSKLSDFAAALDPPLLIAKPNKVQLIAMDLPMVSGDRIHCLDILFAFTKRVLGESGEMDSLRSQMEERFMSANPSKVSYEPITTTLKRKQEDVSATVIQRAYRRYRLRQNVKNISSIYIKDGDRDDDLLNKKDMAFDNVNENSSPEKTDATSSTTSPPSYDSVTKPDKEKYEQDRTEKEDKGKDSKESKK

IC50 [nM] | Structure (SMILES)
15 | NC1CCC(CCOc2cc(F)c(S(=O)(=O)Nc3ncns3)cc2F)(c2ccccc2)CC1 (single isomer, unassigned) [Example 49, 4-(2-(4-amino-1-phenylcyclohexyl)ethoxy)-2,5-difluoro-N-(1,2,4-thiadiazol-5-yl)benzenesulfonamide]
473 | NC1CCC(CCOc2cc(F)c(S(=O)(=O)Nc3ncns3)cc2F)(c2ccccc2)CC1 (single isomer, unassigned) [Example 50, 4-(2-(4-amino-1-phenylcyclohexyl)ethoxy)-2,5-difluoro-N-(1,2,4-thiadiazol-5-yl)benzenesulfonamide]
78 | CC1(CCOc2cc(F)c(S(=O)(=O)Nc3ncns3)cc2F)CCC(N)CC1 (single isomer, unassigned) [Example 56, 4-(2-((1s,4s)-4-Amino-1-methylcyclohexyl)ethoxy)-2,5-difluoro-N-(1,2,4-thiadiazol-5-yl)benzenesulfonamide]
383 | CC1(CCOc2cc(F)c(S(=O)(=O)Nc3ncns3)cc2F)CCC(N)CC1 (single isomer, unassigned) [Example 57, 4-(2-((1s,4s)-4-Amino-1-methylcyclohexyl)ethoxy)-2,5-difluoro-N-(1,2,4-thiadiazol-5-yl)benzenesulfonamide]
52 | NC1CCC(COc2cc(F)c(S(=O)(=O)Nc3ncns3)cc2F)(Cc2ccc(Cl)c(F)c2)CC1 (single isomer, unassigned) [Example 61, 4-((4-amino-1-(4-chloro-3-fluorobenzyl)cyclohexyl)methoxy)-2,5-difluoro-N-(1,2,4-thiadiazol-5-yl)benzenesulfonamide]
55 | NC1CCC(COc2cc(F)c(S(=O)(=O)Nc3ncns3)cc2F)(Cc2ccc(Cl)c(F)c2)CC1 (single isomer, unassigned) [Example 62, 4-((4-amino-1-(4-chloro-3-fluorobenzyl)cyclohexyl)methoxy)-2,5-difluoro-N-(1,2,4-thiadiazol-5-yl)benzenesulfonamide]
12 | O=S(=O)(Nc1nccs1)c1cc(Cl)c(NCCC2CCCNC2)cc1F (stereo not shown) [Example 2, 5-Chloro-2-fluoro-4-((2-(piperidin-3-yl)ethyl)amino)-N-(thiazol-2-yl)benzenesulfonamide]
70 | CN1CCC(CCNc2cc(F)c(S(=O)(=O)Nc3nccs3)cc2Cl)CC1 [Example 5, 5-Chloro-2-fluoro-4-((2-(1-methylpiperidin-4-yl)ethyl)amino)-N-(thiazol-2-yl)benzenesulfonamide]
67 | O=S(=O)(Nc1nccs1)c1cc(Cl)c(NCC2CNCCO2)cc1F (stereo not shown) [Example 6, 5-Chloro-2-fluoro-4-((morpholin-2-ylmethyl)amino)-N-(thiazol-2-yl)benzenesulfonamide]
181 | O=S(=O)(Nc1nccs1)c1cc(Cl)c(NCC2(CN3CCOCC3)CC2)cc1F [Example 8, 5-Chloro-2-fluoro-4-(((1-(morpholinomethyl)cyclopropyl)methyl)amino)-N-(thiazol-2-yl)benzenesulfonamide]
11 | O=S(=O)(Nc1nccs1)c1cc(Cl)c(NCC2(CN3CCCC3)CC2)cc1F [Example 12, 5-Chloro-2-fluoro-4-(((1-(pyrrolidin-1-ylmethyl)cyclopropyl)methyl)amino)-N-(thiazol-2-yl)benzenesulfonamide]
17 | O=S(=O)(Nc1nccs1)c1cc(Cl)c(NCCC2CCNC2)cc1F (stereo not shown) [Example 13, 5-Chloro-2-fluoro-4-((2-(pyrrolidin-3-yl)ethyl)amino)-N-(thiazol-2-yl)benzenesulfonamide]
394 | O=S(=O)(Nc1nccs1)c1cc(Cl)c(NCC2CNC2)cc1F [Example 15, 4-((Azetidin-3-ylmethyl)amino)-5-chloro-2-fluoro-N-(thiazol-2-yl)benzenesulfonamide]
29 | O=S(=O)(Nc1nccs1)c1cc(Cl)c(NCCC2CNC2)cc1F [Example 16, 4-((2-(Azetidin-3-yl)ethyl)amino)-5-chloro-2-fluoro-N-(thiazol-2-yl)benzenesulfonamide]
16 | N[C@H]1CC[C@@H](CNc2cc(F)c(S(=O)(=O)Nc3ncns3)cc2Cl)CC1 [Example 19, 4-((((1s,4s)-4-Aminocyclohexyl)methyl)amino)-5-chloro-2-fluoro-N-(1,2,4-thiadiazol-5-yl)benzenesulfonamide]
7 | N[C@H]1CC[C@@H](CNc2cc(F)c(S(=O)(=O)Nc3nccs3)cc2Cl)CC1 [Example 20, 4-((((1s,4s)-4-Aminocyclohexyl)methyl)amino)-5-chloro-2-fluoro-N-(thiazol-2-yl)benzenesulfonamide]
398 | N[C@H]1CC[C@H](CNc2cc(F)c(S(=O)(=O)Nc3nccs3)cc2Cl)CC1 [Example 21, 4-((((1r,4r)-4-Aminocyclohexyl)methyl)amino)-5-chloro-2-fluoro-N-(thiazol-2-yl)benzenesulfonamide]
16 | CNC1CCC(CNc2cc(F)c(S(=O)(=O)Nc3nccs3)cc2Cl)CC1 (stereo not shown) [Example 23, 5-Chloro-4-(((4-(methylamino)cyclohexyl)methyl)amino)-2-fluoro-N-(thiazol-2-yl)benzenesulfonamide]
69 | CN(C)C1CCC(CNc2cc(F)c(S(=O)(=O)Nc3nccs3)cc2Cl)CC1 (stereo not shown) [Example 24, 5-Chloro-4-(((4-(dimethylamino)cyclohexyl)methyl)amino)-2-fluoro-N-(thiazol-2-yl)benzenesulfonamide]
50 | O=S(=O)(Nc1nccs1)c1cc(Cl)c(NCC2CCC(N3CCC3)CC2)cc1F (stereo not shown) [Example 25, 4-(((4-(Azetidin-1-yl)cyclohexyl)methyl)amino)-5-chloro-2-fluoro-N-(thiazol-2-yl)benzenesulfonamide]
27 | O=S(=O)(Nc1nccs1)c1cc(Cl)c(NCC2CCC(N3CCOCC3)CC2)cc1F (stereo not shown) [Example 26, 5-Chloro-2-fluoro-4-(((4-morpholinocyclohexyl)methyl)amino)-N-(thiazol-2-yl)benzenesulfonamide]
40 | CN1CCN(C2CCC(CNc3cc(F)c(S(=O)(=O)Nc4nccs4)cc3Cl)CC2)CC1 (stereo not shown) [Example 27, 5-Chloro-2-fluoro-4-(((4-(4-methylpiperazin-1-yl)cyclohexyl)methyl)amino)-N-(thiazol-2-yl)benzenesulfonamide]
27 | NC1CCCC(Nc2cc(F)c(S(=O)(=O)Nc3nccs3)cc2Cl)C1 (stereo not shown) [Example 28, 4-((3-Aminocyclohexyl)amino)-5-chloro-2-fluoro-N-(thiazol-2-yl)benzenesulfonamide]
74 | NC1(CCNc2cc(F)c(S(=O)(=O)Nc3nccs3)cc2Cl)CCCCC1 [Example 29, 4-((2-(1-Aminocyclohexyl)ethyl)amino)-5-chloro-2-fluoro-N-(thiazol-2-yl)benzenesulfonamide]
12 | CC1CC(C)(C)C(CNc2cc(F)c(S(=O)(=O)Nc3nccs3)cc2Cl)C1N (stereo not shown) [Example 30, 4-(((5-Amino-2,2,4-trimethylcyclopentyl)methyl)amino)-5-chloro-2-fluoro-N-(thiazol-2-yl)benzenesulfonamide]
12 | NC1CCCC1CNc1cc(F)c(S(=O)(=O)Nc2nccs2)cc1Cl (stereo not shown) [Example 31, 4-(((2-Aminocyclopentyl)methyl)amino)-5-chloro-2-fluoro-N-(thiazol-2-yl)benzenesulfonamide]
28 | NCC1CCCC(CNc2cc(F)c(S(=O)(=O)Nc3nccs3)cc2Cl)C1 (stereo not shown) [Example 32, 4-(((3-(Aminomethyl)cyclohexyl)methyl)amino)-5-chloro-2-fluoro-N-(thiazol-2-yl)benzenesulfonamide]
101 | O=S(=O)(Nc1nccs1)c1cc(Cl)c(NCCC2(O)CCCC2)cc1F [Example 35, 5-Chloro-2-fluoro-4-((2-(1-hydroxycyclopentyl)ethyl)amino)-N-(thiazol-2-yl)benzenesulfonamide]
